Reference: US20140228303A1, “NOVEL SGLT INHIBITORS” (Panacea Biotec Ltd, priority 2011, published 2014)

What was measured:
mouse SGLT-2 = biological target: T1, mouse SGLT-2 (Mus musculus, UniProt Q923I7); assay: Methyl-α-D-[U-14C]Glucopyranoside uptake assay for SGLT-2 in CHO-K1 cells expressing mSGLT-2; format: cell-based; details: N.E. = Not Effective
T1 construct: Full-length mouse SGLT-2 cDNA was amplified from C57BL/6J mouse kidneys and introduced in the pcDNA3.1(+) expression vector; expressed in transfected cells
T1 sequence (Q923I7 1-670): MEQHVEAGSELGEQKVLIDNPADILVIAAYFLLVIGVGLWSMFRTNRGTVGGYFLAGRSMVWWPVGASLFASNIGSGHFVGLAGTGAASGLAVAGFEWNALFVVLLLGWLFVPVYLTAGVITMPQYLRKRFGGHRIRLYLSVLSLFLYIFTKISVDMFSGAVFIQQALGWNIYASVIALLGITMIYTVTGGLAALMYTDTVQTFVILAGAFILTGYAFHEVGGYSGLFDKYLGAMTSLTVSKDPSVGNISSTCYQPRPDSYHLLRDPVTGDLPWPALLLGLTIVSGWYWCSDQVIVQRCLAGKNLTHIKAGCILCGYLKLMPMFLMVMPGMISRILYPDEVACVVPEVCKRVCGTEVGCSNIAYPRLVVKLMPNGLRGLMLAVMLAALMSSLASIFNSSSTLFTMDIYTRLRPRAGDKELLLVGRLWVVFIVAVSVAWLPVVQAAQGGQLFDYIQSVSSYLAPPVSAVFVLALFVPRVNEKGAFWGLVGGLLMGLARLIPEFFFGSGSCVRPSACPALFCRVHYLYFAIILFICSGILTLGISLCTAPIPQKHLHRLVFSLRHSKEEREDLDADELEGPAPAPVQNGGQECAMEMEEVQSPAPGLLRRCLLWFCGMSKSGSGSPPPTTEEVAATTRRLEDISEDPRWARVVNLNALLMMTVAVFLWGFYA
Procedure: Preparation of Mouse SGLT-2 Expressing Cells
Full-length mouse SGLT-2 cDNA was amplified from C57BL/6J mouse kidneys and introduced in the pcDNA3.1(+) expression vector (Invitrogen, Inc.) and propagated in Escherichia coli strain DH5α using Luria-Bertani (LB) medium containing ampicillin. […] Stably transfected cells were selected using G418 antibiotic selection pressure.
Methyl-α-D-[U-^14C]Glucopyranoside Uptake Assay for SGLT-2
(§1) Cells expressing mSGLT-2 were seeded on 96-well tissue culture plates (Greiner, Inc.) in RPMI containing 10% FBS and 400 μg/mL G418 (0.8×10^5 cells per well in 200 μL medium) and incubated at 37° C. under 5% carbon dioxide for 24 h prior to the assay. Cells were washed twice with 200 μL of either sodium buffer (140 mM NaCl, 4.7 mM KCl, 2.2 mM CaCl2, 1.2 mM MgCl2, 10 mM Tris/Hepes, pH 7.4) or sodium-free buffer (137 mM N-methyl-glucamine, 4.7 mM KCl, 2.2 mM CaCl2, 1.2 mM MgCl2, 10 mM Tris/Hepes, pH 7.4). Reaction mixture containing test compounds at different concentrations diluted in assay buffer, 0.1 mM unlabeled Methyl-α-D-glucopyranoside and 1 μCi/well methyl-α-D[U-^14C]glucopyranoside (American Radiochemicals) was added per well of a 96-well plate and incubated at 37° C. for 1 h. Cells were washed thrice with 200 μL of wash buffer (140 mM NaCl, 4.7 mM KCl, 2.2 mM CaCl2, 1.2 mM MgCl2, 10 mM Tris/Hepes, pH 7.4 containing 500 μM phlorizin) and lysed using 50 μL of 0.25N NaOH. Methyl-α-D[U-^14C]glucopyranoside uptake was quantitated using a Top count scintillation counter (PerkinElmer, Inc.). All the test compounds were assayed in triplicates.

C57BL/6J mice = assay: Estimation of urinary glucose in C57BL/6J mice; format: in vivo, mouse; details: urine collected over 24 h
Procedure: Estimation of Urinary Glucose in C57BL/6J Mice
C57BL/6J mice were fasted 4 h before drug treatment. Fasted mice were weighed and randomized into different groups based on their body weight (n=6). At time T0 test compounds and standard compounds suspended in 0.25% CMC or PEG 400 formulation, were administered to respective groups and kept in metabolic cages (6 mice/cage) after dosing. Animals were fed after drug administration and urine was collected over a period of 24 h. Urinary volume was measured and urinary glucose was estimated using Merckotest Glucose Reagent (Merck Specialities Pvt. Ltd., India).

human SGLT-1 = biological target: T2, human SGLT-1 (Homo sapiens, UniProt P13866); assay: Methyl-α-D-[U-14C]Glucopyranoside uptake assay for SGLT-1 in CHO-K1 cells expressing hSGLT-1; format: cell-based; details: N.E. = Not Effective
T2 construct: Full-length human SGLT-1 cDNA in the pCMV-XL-Neo expression vector was obtained from Origene Corporation
T2 sequence (P13866 1-664): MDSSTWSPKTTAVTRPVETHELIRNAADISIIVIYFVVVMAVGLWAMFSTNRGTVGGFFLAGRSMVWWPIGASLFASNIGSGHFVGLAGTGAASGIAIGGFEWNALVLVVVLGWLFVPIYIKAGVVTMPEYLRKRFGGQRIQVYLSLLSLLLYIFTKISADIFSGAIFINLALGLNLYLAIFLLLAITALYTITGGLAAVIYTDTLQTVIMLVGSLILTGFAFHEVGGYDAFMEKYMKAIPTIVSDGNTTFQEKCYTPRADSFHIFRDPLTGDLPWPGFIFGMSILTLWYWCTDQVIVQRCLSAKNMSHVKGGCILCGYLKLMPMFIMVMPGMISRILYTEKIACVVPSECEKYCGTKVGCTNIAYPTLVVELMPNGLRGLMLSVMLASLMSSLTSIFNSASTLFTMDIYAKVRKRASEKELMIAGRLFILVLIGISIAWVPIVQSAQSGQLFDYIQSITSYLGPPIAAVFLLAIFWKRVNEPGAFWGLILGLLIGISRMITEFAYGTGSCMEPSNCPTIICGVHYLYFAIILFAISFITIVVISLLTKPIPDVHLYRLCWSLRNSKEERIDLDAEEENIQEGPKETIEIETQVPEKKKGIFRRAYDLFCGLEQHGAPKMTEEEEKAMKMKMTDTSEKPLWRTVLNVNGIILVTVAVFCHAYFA
Procedure: Preparation of Human SGLT-1 Expressing Cells
Full-length human SGLT-1 cDNA in the pCMV-XL-Neo expression vector was obtained from Origene Corporation and propagated in Escherichia coli strain DH5α using Luria-Bertani (LB) medium containing ampicillin. […] Stably transfected cells were selected using G418 antibiotic selection pressure.
Methyl-α-D-[U-^14C]Glucopyranoside Uptake Assay for SGLT-1
as §1, with “hSGLT-1” for “mSGLT-2”, “800 μg/ml” for “400 μg/mL”, “compounds” for “compounds at different concentrations”, “1” for “0.1”, “methyl-α-D-[U-^14C]glucopyranoside” for “methyl-α-D[U-^14C]glucopyranoside”, “Methyl-α-D-[U-^14C]glucopyranoside” for “Methyl-α-D[U-^14C]glucopyranoside”

Row | Molecule | % inhibition of Methyl-α-D-[U-14C] Glucopyranoside uptake (CHO-K1 cells) mediated by SGLT-2 (mouse SGLT-2; 0.1 nM compound) | % inhibition of Methyl-α-D-[U-14C] Glucopyranoside uptake (CHO-K1 cells) mediated by SGLT-2 (mouse SGLT-2; 1 nM compound) | % inhibition of Methyl-α-D-[U-14C] Glucopyranoside uptake (CHO-K1 cells) mediated by SGLT-2 (mouse SGLT-2; 10 nM compound) | % inhibition of Methyl-α-D-[U-14C] Glucopyranoside uptake (CHO-K1 cells) mediated by SGLT-2 (mouse SGLT-2; 100 nM compound) | UGE in mice (in mg/g of feed consumed) at 3 mpk (C57BL/6J mice) | % inhibition of Methyl-α-D-[U-14C] Glucopyranoside uptake (CHO-K1 cells) mediated by SGLT-1 (human SGLT-1; 100 nM compound) | % inhibition of Methyl-α-D-[U-14C] Glucopyranoside uptake (CHO-K1 cells) mediated by SGLT-1 (human SGLT-1; 1 μM compound) | % inhibition of Methyl-α-D-[U-14C] Glucopyranoside uptake (CHO-K1 cells) mediated by SGLT-1 (human SGLT-1; 10 μM compound)
1 | 1-(4-(2-chloro-5-((2S,3R,4R,5S,6R)-3,4,5-trihydroxy-6-(hydroxymethyl)tetrahydro-2H-pyran-2-yl)benzyl)phenyl)-propan-1-one O-methyl oxime [Compound 7] | 44.36% | 48.64% | 42.26% | 74.40% | 78.4 mg/g of feed consumed | N.E. | N.E. | 56.97%
2 | 1-(4-(2-chloro-5-((2S,3R,4R,5S,6R)-3,4,5-trihydroxy-6-(hydroxymethyl)tetrahydro-2H-pyran-2-yl)benzyl)phenyl)ethanone O-ethyl oxime [Compound 6] | 44.05% | 45.09% | 62.06% | 89.78% | 78.1 mg/g of feed consumed | N.E. | 22.68% | 60.02%
3 | 1-(4-(2-chloro-5-((2S,3R,4R,5S,6S)-3,4,5-trihydroxy-6-methoxy tetrahydro-2H-pyran-2-yl)benzyl)phenyl)ethanone O-ethyl oxime [Compound 5] | 23.91% | 45.81% | 50.06% | 91.98% | 81.7 mg/g of feed consumed | N.E. | N.E. | 49.74%
4 | CCON=C(CC)c1ccc(Cc2cc([C@@H]3O[C@H](CO)[C@@H](O)[C@H](O)[C@H]3O)ccc2Cl)cc1 [Compound 17] | – | – | – | – | 64.5 mg/g of feed consumed | – | – | –
